In paper PMC4326964, “Probing the substrate specificity of Trypanosoma brucei GlcNAc-PI de-N-acetylase with synthetic substrate analogues” (Organic & Biomolecular Chemistry, 2014):
Entries after “also recorded” stand apart in the source; their conditions may differ.

Columns and labels:
[1] = target: T1, T. brucei GlcNAc-PI de-N-acetylase (Trypanosoma brucei brucei, UniProt Q8I8A5); assay: Substrate recognition (de-N-acetylation turnover) in T. brucei cell-free system, LC-MS/MS assay; assay type: biochemical; conditions: for Turnover: conversion of N-acetylated compound to free amine, 37 °C, 1 h, ND = turnover not detected, for 53 measured via d6-Ac2O derivatisation of the free amine; for Relative turnover: turnover relative to α-D-GlcpNAc-PI (1); for Substrate activity: recognised and processed (in words): N-acetylated analogue as substrate of the de-N-acetylase
Description: [8],[10] The N-acetylated analogues of these compounds were prepared as previously described to give compounds 47–53 (Fig. 3).
Using LC-MS/MS, multiple reaction monitoring of characteristic transitions for the N-acetylated and corresponding amine form of each compound was used to directly measure the rate of conversion of the N-acetylated compound to the free amine (Table 1). As no suitable transition was identified for the amine form of 13, the enzymatic turnover was accessed by reacting any free amine formed with d 6-Ac2O, and measuring the formation of the d 3-N-acetylated form by LC-MS/MS.
The synthesis of 1-D-6-O-(2-amino-2-deoxy-α-D-glucopyranosyl)-myo-inositol 1-(octadecyl phosphate), (4, α-D-GlcpNH2-IPC18), [15] has been described previously. The corresponding N-acetyl derivate α-D-GlcpNAc-IPC18 (3) was prepared by treatment with acetic anhydride, [13] and the concentration of stock solutions determined by measurement of the inositol content by selected ion-monitoring GC-MS. Bloodstream form Trypanosome brucei (variant MITat1.4) were isolated and membranes (cell-free system) prepared as described previously and stored at –80 °C.
Substrate recognition assays were performed using 500 pmol of α-D-GlcpNAc-PI (1) in incorporation buffer (25 mM Tris pH 8.0, 50 mM KCl, 50 mM MnCl2) and varying amounts of trypanosome cell-free system (0–15 × 10^6 cell equivalents per assay) in 96-well plates containing 100 μL final volume, and incubated at 37 °C for 1 h. The reaction was quenched and the glycolipids enriched and analyzed by LC-MS/MS as described below.
(§1) Enrichment of glycolipids was performed in a 96-well plate format. Reactions were quenched by addition of 200 μL of 5% propan-1-ol, 5 mM NH4OAc, and the glycolipids were bound to C18 resin (50 mg Isolute Array cartridge), washed three times with 200 μL 5% propan-1-ol, 5 mM NH4OAc and eluted with 100 μL 40% propan-1-ol, 5 mM NH4OAc into a 96-well collection plate.
Prior to subsequent analysis, compound 13 was dried under nitrogen, resuspended in MeOH (100 μL) and any free amine reacted with excess d 6-Ac2O (1.5 μL) in the presence of pyridine (10 μL) for 15 min. The reaction was quenched with water (50 μL), dried under nitrogen and resuspended in 100 μL 40% propan-1-ol, 5 mM NH4OAc.
(§2) Glycolipids were analyzed by liquid chromatography coupled to an electrospray tandem mass spectrometer (LC-MS/MS). Samples (40 μL) were injected directly from a 96-well plate onto a 10 × 1 mm C18 column (ACE, […]) and then eluted using a binary gradient of 5–80% propan-1-ol in 5 mM NH4OAc (Dionex Ultimate 3000). The gradient consisted of 2 min 0% B, 2–4 min 0–100% B, 4–8 min 100%, 8–9 min 100–0% B, 9–10 min 0% B where buffer A consisted of 5% propan-1-ol, 5 mM NH4OAc and buffer B 80% propan-1-ol, 5 mM NH4OAc. The glycolipids were analysed on an electrospray triple quadrapole mass spectrometer (Micromass Quattro Ultima) in multiple reaction monitoring mode.
For each pseudodisaccharide analogue (7–12), standards of the N-acetylated compound and corresponding free amine were analyzed separately in order to identify unique transitions for use in subsequent multiple reaction monitoring experiments (Table 1). The ratio of the integrals for these transitions was used to calculate the percentage of substrate conversion to product in a given sample. For compound 13, standards of the N-acetylated compound and the d 3-N-acetylated form were analyzed separately and found to produce a common fragment for use in subsequent multiple reaction monitoring experiments.

[2] = target: T1, T. brucei GlcNAc-PI de-N-acetylase; conditions: previous studies; cited from earlier work
[3] = target: T1, T. brucei GlcNAc-PI de-N-acetylase; assay: Inhibition of turnover of α-D-GlcpNAc-IPC18 (3) in T. brucei cell-free system, LC-MS/MS assay; assay type: biochemical; conditions: inhibition of turnover of 3; tested at 100 μM
Description: Since the majority of the compounds were not processed by the T. brucei GlcNAc-PI de-N-acetylase, we tested their ability to inhibit the turnover of the α-D-GlcpNAc-IPC18 (3) substrate by the T. brucei GlcNAc-PI de-N-acetylase in the LC-MS/MS assay.
Inhibition assays were performed in 96-well plates in 100 μL final volume, with 1% v/v DMSO with or without inhibitor. Trypanosome cell-free system (2.5 × 10^6 cell equivalents per assay) in incorporation buffer were added to wells containing 500 pmol α-D-GlcpNAc-IPC18 (3) with or without inhibitor and incubated at 37 °C for 1 h. The reaction was quenched and the glycolipids enriched and analyzed by LC-MS/MS as described below.
as §1, §2
For inhibition assays, the turnover of the substrate α-D-GlcpNAc-IPC18 (3) was used to calculate the percentage of substrate conversion to product in a given sample. Inhibitor IC50 values were calculated using a four-parameter fit of eight-point potency curves derived from three independent experiments, and are quoted with a standard deviation.

T. brucei GPI pathway = assay: Trypanosome cell-free system with [3H]-mannose labelling (HPTLC, fluorography); assay type: biochemical, Trypanosoma brucei
Text: The ability of 49 and 48 to act as a substrate and inhibitor, respectively, of the T. brucei GPI pathway was confirmed using the trypanosome cell-free system with [^3H]-mannose labelling (Fig. 5). […] As these mannosylated compounds lack the inositol 2-OH group they cannot undergo inositol acylation, a prerequisite for the transfer of ethanolamine, and thus are not processed past the Man3-species.
Fig. 5 The trypanosome GPI biosynthesis in the cell-free system. A. The T. brucei cell-free system was incubated without exogenous substrate, with 1, α-D-GlcpNAc-PI (10 μM), or with 49 (100 μM) in the presence of GDP-[^3H]Mannose to stimulate the production of radiolabelled mannosylated GPI intermediates. B. Inhibition of the turnover of 3, α-D-GlcpNAc-IPC18 (10 μM), in the presence of 48 (100 μM). Glycolipid products were extracted, separated by high-performance thin-layer chromatography, and visualised by fluorography. DPM – dolichol-phosphate-mannose, M1 – Man1 species, M2 – Man2 species, M3 – Man3 species, A′ – EtNPMan3 species, where the identity and migration of the species depends on the glycolipid substrate employed.
The formation of GPI precursors is monitored by following the incorporation of [^3H]-mannose and then they were analysed using […] and fluorography as described previously.

T1 sequence (Q8I8A5 entry or part of it): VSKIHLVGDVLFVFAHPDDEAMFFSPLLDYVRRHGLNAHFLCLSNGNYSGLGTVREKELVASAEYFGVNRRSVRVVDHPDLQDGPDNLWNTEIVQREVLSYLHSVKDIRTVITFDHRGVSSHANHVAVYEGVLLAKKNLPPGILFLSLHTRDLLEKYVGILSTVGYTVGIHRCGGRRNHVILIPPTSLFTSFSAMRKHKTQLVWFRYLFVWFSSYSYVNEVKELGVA

Compound	Inhibitory activity (in words) [3]	Substrate activity: recognised and processed (in words) [1]	further results
CCCCCCCCCCCCCCCC(=O)OCC(COP(=O)(O)OC1C(O)C(O)C(O)C(O)C1OC1OC(CO)C(O)C(O)C1NC(C)=O)OC(=O)CCCCCCCCCCCCCCC [Compound 1, 1-D-(2-acetamido-2-deoxy-α-D-glucopyranosyl)-myo-inositol 1-(1,2-di-O-hexadecanoyl-sn-glycerol 3-phosphate), reference compound]			Turnover [1]: 6.1 ± 0.9 pmol/10^6 cells equiv.; Relative turnover [1]: 100%; Recognition and processing by the enzyme (in words) [2]: recognised and processed
CCCCCCCCCCCCCCCCCCOP(=O)(O)OC1C(O)C(O)C(O)C(O)C1OC1OC(CO)C(O)C(O)C1NC(C)=O (stereo not shown) [Compound 3, reference compound]			Turnover [1]: 27.0 ± 6.0 pmol/10^6 cells equiv.; Relative turnover [1]: 450%
CCCCCCCCCCCCCCCC(=O)OC[C@H](COP(=O)(O)O[C@H]1[C@@H](O)[C@@H](O)[C@H](O)[C@@H](O)[C@@H]1O[C@H]1O[C@H](CO)[C@@H](O)[C@H](O)[C@H]1NC(C)=O)OC(=O)CCCCCCCCCCCCCCC [Compound 5]			Recognition and processing by the enzyme (in words) [2]: recognise and process
CCCCCCCCCCCCCCCC(=O)OC[C@H](COP(=O)(O)O[C@@H]1[C@H](O)[C@H](O)[C@@H](O)[C@H](O)[C@H]1O[C@@H]1O[C@H](CO)[C@@H](O)[C@H](O)[C@H]1NC(C)=O)OC(=O)CCCCCCCCCCCCCCC [Compound 6]			Recognition and processing by the enzyme (in words) [2]: recognised and processed; also recorded: recognise and process
CCCCCCCCCCCCCCCCCCOP(=O)(O)O[C@@H]1CCCC[C@H]1O[C@H]1O[C@H](CO)[C@@H](O)[C@H](O)[C@H]1NC(C)=O [Compound 47]	act as inhibitors		
CCCCCCCCCCCCCCCCCCOP(=O)(O)O[C@@H]1CCCC[C@H]1O[C@@H]1O[C@H](CO)[C@@H](O)[C@H](O)[C@H]1NC(C)=O [Compound 48]	act as inhibitors		Inhibition of priming of the cell-free system with 3 (T. brucei GPI pathway; 3 (α-D-GlcpNAc-IPC18) at 10 μM, inhibitor at 100 μM): efficiently prevented
CCCCCCCCCCCCCCCC(=O)OC[C@H](COP(=O)(O)O[C@@H]1CCCC[C@H]1O[C@H]1O[C@H](CO)[C@@H](O)[C@H](O)[C@H]1NC(C)=O)OC(=O)CCCCCCCCCCCCCCC [Compound 49]		both recognised and processed	Turnover [1]: 1.3 ± 0.3 pmol/10^6 cells equiv.; Relative turnover [1]: 22%; Formation of mannosylated GPI intermediates on priming the cell-free system (T. brucei GPI pathway; 49 at 100 μM, GDP-[3H]Mannose, bands sensitive to jackbean α-mannosidase): three bands corresponding to the addition of 1–3 mannose residues
CCCCCCCCCCCCCCCC(=O)OC[C@H](COP(=O)(O)O[C@@H]1CCCC[C@H]1O[C@@H]1O[C@H](CO)[C@@H](O)[C@H](O)[C@H]1NC(C)=O)OC(=O)CCCCCCCCCCCCCCC [Compound 50]	neither a substrate nor an inhibitor	neither a substrate nor an inhibitor	
CCCCCCCCCCCCCCCCCCS(=O)(=O)N[C@@H]1CCCC[C@H]1O[C@@H]1O[C@H](CO)[C@@H](O)[C@H](O)[C@H]1NC(C)=O [Compound 51]	inability	inability	
CCCCCCCCCCCCCCCCCCS(=O)(=O)N[C@@H]1CCCC[C@H]1O[C@H]1O[C@H](CO)[C@@H](O)[C@H](O)[C@H]1NC(C)=O [Compound 52]	inability	inability	
CCCCCCCCCCCCCCCCCCOP(=O)(O)O[C@@H]1CCCC[C@H]1OCC(CO)NC(C)=O (stereo partly shown) [Compound 53]	inactivity	inactivity	
